Data reported in patent US20230270696A1, “MEDICINAL USE OF FINGOLIMOD IN PREVENTION AND TREATMENT OF NEURODEGENERATIVE DISEASES CAUSED BY SPHINGOLIPID DISORDERS” (priority 2020, published 2023).
Counter-ions that a name gives are not always drawn.

Columns and labels:
[1] = tested on: sphingomyelinase; test: Sphingomyelinase activity assay (Sphingomyelinase Assay Kit ab138876) with or without FTY720; format: biochemical; settings: different sphingomyelinase concentrations, sphingomyelin as substrate, 60 min at 37° C., absorbance
Method: Different concentrations (horizontal axis) of purified sphingomyelinase are added in the presence or absence of FTY720 and incubation proceeded for 60 min at 37° C., before measuring sphingomyelin breakdown in absorbance. Blue line (top line): value of sphingomyelinase activity under normal control conditions, red line (bottom line): value of sphingomyelinase activity in the presence of FTY720.
Embodiment 4: Direct inhibition of sphingomyelinase by FTY720 Experimental method: FTY720 is purchased from Sigma, Cas No. 162359-56-0. Sphingomyelinase activity is determined using the Sphingomyelinase Assay Kit (ab138876) kit. The experiment is divided into two groups: normal sphingomyelinase activity assay group and sphingomyelinase activity assay group in the presence of FTY720.

[2] = tested on: MEF cells deficient in ATP13A2; test: Drug screening: intracellular sphingomyelin (SM C18) content by mass spectrometry; format: cell-based, mouse; settings: ATP13A2 KO MEF cells treated 48 hours (FIG. 8 legend: 10 μM, 37° C., 24 h)
Method: Experimental method: ten potential sphingolipid metabolic drugs reported in the literature for screening the modulatory effects on intracellular sphingolipids are selected, namely Fingolimod, Fluoxetine, Amitriptyline, Clomipramine, Desipramine, Siponimod, KRP-203, Amlodipine, Sertraline, Trimipramine, etc. MEF cells with disease-causing gene ATP13A2 KO are obtained using the disease model mouse embryos isolated and cultured. The MEF cells deficient in ATP13A2 are treated with the above ten drugs individually for 48 hours, and the intracellular content of sphingomyelin (SM C18) is measured by mass spectrometry.

[3] = tested on: ATP13A2 KO neurodegenerative disease model mice; test: Rotating rod test of movement function; format: in vivo, mouse
Method: Experimental method: five drugs, including fingolimod, fluoxetine, clomipramine, desipramine, and trimipramine, are selected for oral administration (0.5 mg/kg) to diseased mice. The effect of the drugs on the movement function of the mice is examined one week after drug administration.
(§1) Experimental method: The experiment is divided into four groups: C57BL/6 normal WT mice+normal saline control group (WT+C group), ATP13A2 KO neurodegenerative disease model mice+normal saline control group (KO+C group), normal WT mice+FTY720 group (WT+FTY720 group), and ATP13A2 KO neurodegenerative disease model mice+FTY720 group (KO+FTY720 group). The mice are injected intraperitoneally with FTY720 (0.25 mg/kg/day, i.p.). 5 days later, the mice are tested for movement function using a rotating rod test.
as §1, with “group),” for “group), and”, “group). FTY720 dissolved in water is administered to” for “group). The”, “mice orally administered (0.5 mg/kg/day), and one week” for “mice are injected intraperitoneally with FTY720 (0.25 mg/kg/day, i.p.). 5 days”, “using the” for “using a”
as §1, with “group). A single administration (10 μg, i.c.v.) is administered to the” for “group). The”, “mice by ventricular injection, and one week” for “mice are injected intraperitoneally with FTY720 (0.25 mg/kg/day, i.p.). 5 days”, “using the” for “using a”
(§2) Experimental method: The experiment is divided into four groups: C57BL/6 normal WT mice+normal saline control group (WT+C group), ATP13A2 KO aged disease model mice+normal saline control group (KO+C group), normal WT mice+FTY720 group (WT+FTY720 group), and ATP13A2 KO neurodegenerative disease model mice+FTY720 group (KO+FTY720 group). The mice are administered orally (0.5 mg/kg/day), and after two weeks, the movement function of the mice is examined using the standing test and the rotating rod test.

[4] = tested on: ATP13A2 KO neurodegenerative disease model mice; test: Expression of genes related to sphingolipid metabolism in orbitofrontal cortex; format: in vivo, mouse; settings: one week after i.p. 0.5 mg/kg
Method: Red (dark) color indicates high expression and blue (light) color indicates low expression.
Experimental method: the experiment is divided into 4 groups: C57BL/6 normal WT mice+normal saline control group (WT+C group), ATP13A2 KO neurodegenerative disease model mice+normal saline control group (KO+C group), normal WT mice+FTY720 group (WT+FTY720 group), and ATP13A2 KO neurodegenerative disease model mice+FTY720 group (KO+FTY720 group). One week after intraperitoneal injection of FTY720 (0.5 mg/kg), samples are extracted from the orbitofrontal cortex area of mouse brain tissue, and Smpd1 Smpd2 Smpd3 Smpd4 Enpp7 Asah1 Asah2 Acer1 Acer2 Acer3 Cers1 Cers2 Cers3 Cers4 Cers5 Cers6 Col4a3 bp Cerk Gba Ugcg Degs1 Degs2 Sgpl1 Sptlc1 Sptic2 Sptic3 Abca1 Abca2 Abca7 Abca12 Abcc1 Abcg1 Abcg2 Sgms1 Sgms2 Cftr Sphk1 Sphk2 Slpr1 Kit Hexa Hexb Gal3st1 Gaphdh TERC TERT Ki67, etc. totally 47 genes related to sphingolipid metabolism are analyzed for comparison.

[5] = tested on: ATP13A2 KO neurodegenerative disease model mice; test: Lipidomic assay of striatum brain tissue (LC-MS); format: in vivo, mouse; settings: one week after i.p. 0.5 mg/kg
Method: Experimental method: the experiment is divided into 4 groups: C57BL/6 normal WT mice+normal saline control group (WT+C group), ATP13A2 KO neurodegenerative disease model mice+normal saline control group (KO+C group), normal WT mice+FTY720 group (WT+FTY720 group), and ATP13A2 KO neurodegenerative disease model mice+FTY720 group (KO+FTY720 group). One week after intraperitoneal injection of FTY720 (0.5 mg/kg), mice are sampled from the striatum of brain tissue, lipids are extracted from the brain tissue samples using a lipid extraction method, appropriate internal standards are added. All lipid analysis is performed in electrospray ionization (ESI) mode using a liquid mass spectrometer.

[6] = tested on: ATP13A2 KO spastic paraplegic model mice; test: Standing test (number of standing per 30 minutes); format: in vivo, mouse
Method: 1-7 days with administration treatment on the disease model mice (shaded), 7-14 days with discontinuation treatment (unshaded), and 15-21 days with restored secondary administration treatment (shaded).
Experimental method: Spastic paraplegic ATP13A2 KO mice (KO mice) are divided into four groups and given normal saline or FTY720 dissolved in normal saline at 0.05, 0.1, and 0.5 mg/kg/day for oral administration, and the mice are tested in a standing test after 7 days of oral administration.
Experimental method: The experiment is divided into two groups: C57BL/6 wild normal mice (WT) and ATP13A2 KO spastic paraplegic model mice (KO), which are administered FTY720 0.5 mg/k/day orally at the same time, discontinued after 0-7 days of administration, and resumed after one week of discontinuation, during which the mice are tested for standing every other day.
as §2

[7] = tested on: aged ATP13A2 KO paraplegic mouse; test: Standing in beaker and hind limb foot-based angle (FBA) before and after drug administration; format: in vivo
Method: as §2
Meanwhile, the same aged ATP13A2 KO neurodegenerative disease mouse is placed in an upright glass beaker to observe its standing (FIG. 19). […] The angle of the hind limb to the ground (FBA, foot-based angle) in the aged ATP13A2 KO paraplegic mouse is also measured.

[8] = tested on: ATP13A2 KO neurodegenerative disease model mice; test: Transmission electron microscopy of brain tissue (lipofuscin deposition, axonal myelin sheath tearing); format: in vivo, mouse; settings: two weeks after oral administration, TEM
Text: Experimental method: The experiments are divided into three groups: C57BL/6 wild normal mice (WT), ATP13A2 KO neurodegenerative disease model mice+normal saline control (KO+C), and FTY720 treatment ATP13A2 KO mice (KO+FTY720). Mice are executed two weeks after oral administration, and brain tissue is removed and fixed for transmission electron microscopy analysis.

[9] = tested on: ATP13A2 KO neurodegenerative disease model mice; test: Brain tissue neurotransmitter content by HPLC; format: in vivo, mouse; settings: one week after i.p. 0.5 mg/kg, striatum, hypothalamus, substantia nigra
Method: Experimental method: the experiment is divided into four groups: C57BL/6 normal WT mice+normal saline control group (WT+C group), ATP13A2 KO neurodegenerative disease model mice+normal saline control group (KO+C group), normal WT mice+FTY720 group (WT+FTY720 group), and ATP13A2 KO neurodegenerative disease model mice+FTY720 group (KO+FTY720 group). One week after mice are injected intraperitoneally with FTY720 (0.5 mg/kg), samples are taken from the striatum, hypothalamus, and substantia nigra of mouse brain tissue to extract neurotransmitters in the brain. Using a high performance liquid chromatography, neurotransmitters such as dopamine, serotonin, and γ-aminobutyric acid are analyzed.

[10] = aged ATP13A2 KO mice, oral 0.5 mg/kg/day, two weeks

CCCCCCCCc1ccc(CCC(N)(CO)CO)cc1 [FTY720, 2-amino-2-[2-(4-octylphenyl)]-1,3-propanediol hydrochloride]
sphingomyelinase activity compared to the control group [1]: significant decrease
intracellular sphingomyelin (SM C18) content [2]: most obvious elevation
duration of stay in the rotating rod ([3]; 0.25 mg/kg/day i.p., 5 days, ATP13A2 KO mice vs control group): significantly longer
duration of stay in the rotating rod [3, 10]: significantly longer
motor function (rotating rod), screen of five drugs ([3]; oral 0.5 mg/kg, one week after drug administration, ATP13A2 KO mice): improves the motor function of the ATP13A2 KO disease model mice among the five drugs with the most significant effect
duration of stay in the rotating rod ([3]; oral 0.5 mg/kg/day, one week, ATP13A2 KO mice vs control group): significantly longer
duration of stay in the rotating rod ([3]; single 10 μg i.c.v., one week later, ATP13A2 KO mice vs control group): significantly longer
expression of cers4, cerk and sphk1 [4]: downregulated
expression of smpd1 and enpp7 [4]: upregulated
content of sphingomyelin and ceramide in striatum [5]: mostly restores to the normal group level
number of standing [6, 10]: significant increase
number of standing after drug discontinuation ([6]; one week of discontinuation after 7 days oral 0.5 mg/k/day): gradual decrease
number of standing per 30 minutes during administration ([6]; oral 0.5 mg/k/day, days 0-7, ATP13A2 KO paraplegic mice): increases significantly with increasing administration time
number of standing per 30 minutes ([6]; oral 0.05, 0.1 and 0.5 mg/kg/day, after 7 days, ATP13A2 KO paraplegic mice): increased to different degrees in a dose-dependent manner
number of standing after resumption of administration ([6]; resumed oral administration, days 15-21): gradual increase
standing in an upright glass beaker after drug administration ([7]; same aged ATP13A2 KO mouse before and after drug, oral 0.5 mg/kg/day): can be photographed to stand up by clinging to the beaker wall
angle of the hind limb to the ground (FBA, foot-based angle) ([7]; same aged ATP13A2 KO paraplegic mouse before and after drug): significant increase
number of intracellular lipofuscins in brain tissue ([8]; more than 100 cells counted): significantly reduced
number of torn axonal myelin sheaths in brain tissue ([8]; more than 100 myelin sheaths counted): significantly reduced
neurotransmitter contents (dopamine, serotonin, γ-aminobutyric acid) in brain tissue [9]: restored to the normal group level

CN(C)CCC=C1c2ccccc2CCc2ccccc21 [amitriptyline]
intracellular sphingomyelin (SM C18) content [2]: most obvious elevation

CN(C)CCCN1c2ccccc2CCc2ccc(Cl)cc21 [clomipramine]
intracellular sphingomyelin (SM C18) content [2]: most obvious elevation

CNCCC(Oc1ccc(C(F)(F)F)cc1)c1ccccc1 (centres unmarked) [fluoxetine]
intracellular sphingomyelin (SM C18) content [2]: most obvious elevation
